Molecules are shown by their SMILES. Where two headings read alike, the source gives them in different places.

In experiment [1] the test system is TNFα production in LPS-stimulated human monocytes. As to the kind of experiment: Cot Monocyte TNFα Cell Based Assay. The settings on record: Homo sapiens, Monocyte, read-out: EC50 TNF. In a few lines:
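TR-FRET read-out of total secreted TNFα, normalized as % control (unstimulated = 0%, LPS-stimulated = 100%). Cells (5,000/well) were exposed to compound 1 h at 37 °C, then to 50 pg/ml LPS for a further 4 h.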

In experiment [2] the target is T1, human Cot catalytic domain (30-397 amino acids) (Homo sapiens, UniProt P41279).
T1 construct: Purified recombinant human Cot catalytic domain (30-397 amino acids) was purchased from Cama Biosciences; purchased Cama Biosciences (so in the source)
As to the kind of experiment: High Throughput Cot Biochemical Assay (KinEASE TR-FRET). The settings on record: read-out: IC50 HTRF. An outline of the steps:
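TR-FRET readout: Eu-labeled phospho-specific antibody binds XL665-tagged STK3 peptide after phosphorylation by Cot (aa 30-397, 5 nM). Conditions: 400 μM ATP, 1 μM peptide, MOPS pH 7.0 buffer with MgOAc, DTT, BSA, NP-40, glycerol; 0.1% DMSO.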

[3] abbreviates: LPS-stimulated human monocytes, TNFα TR-FRET.
Setting [4] is: Cot KinEASE TR-FRET, 400 μM ATP.
The mark [5] stands for this setting: TNFα in LPS-stimulated human monocytes.
Where [6] appears, read: Cot biochemical HTRF (KinEASE TR-FRET) assay.
Setting [7] is: Cot KinEASE TR-FRET (HTRF) biochemical assay, 400 μM ATP.

T1 sequence (P41279 30-397): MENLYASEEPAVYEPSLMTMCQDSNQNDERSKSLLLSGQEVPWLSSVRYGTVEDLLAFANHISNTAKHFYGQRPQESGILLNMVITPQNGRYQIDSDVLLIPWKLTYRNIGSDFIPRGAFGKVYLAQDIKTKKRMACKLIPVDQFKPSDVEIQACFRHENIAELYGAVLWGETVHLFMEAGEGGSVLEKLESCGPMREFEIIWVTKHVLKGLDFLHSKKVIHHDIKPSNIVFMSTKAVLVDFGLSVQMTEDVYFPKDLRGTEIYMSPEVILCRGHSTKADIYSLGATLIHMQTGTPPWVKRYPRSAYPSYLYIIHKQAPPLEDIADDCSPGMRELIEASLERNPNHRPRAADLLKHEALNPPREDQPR

Consider `Cc1c([C@H](Nc2cc(C#N)c3ncc(C#N)c(NCC(C)(C)C)c3c2)c2cn(C3(C(F)(F)F)CC3)nn2)cccc1-n1cccn1` [Example 1045, (S)-6-(((2-methyl-3-(1H-pyrazol-1-yl)phenyl)(1-(1-(trifluoromethyl)cyclopropyl)-1H-1,2,3-triazol-4-yl)methyl)amino)-4-(neopentylamino)quinoline-3,8-dicarbonitrile], for which the EC50 in experiment [1] (setting [3]) was determined as 268 nM. The IC50 in experiment [2] (setting [4]) was 5 nM.

For `CCN1CCC(n2cc([C@@H](Nc3cc(F)c4ncc(C#N)c(Nc5ccc(F)c(Cl)c5)c4c3)c3ccccc3)nn2)CC1` [Example 791, (S)-4-((3-chloro-4-fluorophenyl)amino)-6-(((1-(1-ethylpiperidin-4-yl)-1H-1,2,3-triazol-4-yl)(phenyl)methyl)amino)-8-fluoroquinoline-3-carbonitrile], the EC50 in experiment [1] (setting [5]) came to 50 nM. For the same molecule, the IC50 in experiment [2] (setting [6]) is 3 nM.

Take `N#Cc1cc([C@H](Nc2cc(Cl)c3ncc(C#N)c(Nc4cnc(F)c(F)c4)c3c2)c2c[nH]nn2)ccc1F` [Example 372, (S)-8-chloro-6-(((3-cyano-4-fluorophenyl)(1H-1,2,3-triazol-4-yl)methyl)amino)-4-((5,6-difluoropyridin-3-yl)amino)quinoline-3-carbonitrile]: the EC50 in experiment [1] (setting [5]) worked out at 771 nM. The IC50 in experiment [2] (setting [7]) came to 11 nM.

Regarding `CC(C)(C)N1CCC(n2cc([C@@H](Nc3cc(Cl)c4ncc(C#N)c(Nc5cccc(Br)c5)c4c3)c3ccc(Cl)cc3)nn2)CC1` [Example 757, (S)-4-((3-bromophenyl)amino)-6-(((1-(1-(tert-butyl)piperidin-4-yl)-1H-1,2,3-triazol-4-yl)(4-chlorophenyl)methyl)amino)-8-chloroquinoline-3-carbonitrile], the EC50 in experiment [1] (setting [5]) was determined as 738 nM. In addition, the IC50 in experiment [2] (setting [6]) is 41 nM.

Consider `[2H][C@](Nc1cc(Cl)c2ncc(C#N)c(NC3CS(=O)(=O)C3)c2c1)(c1ccc(F)cc1)c1cn(C2CC2)nn1` [Example 200, (S)-8-chloro-6-(((1-cyclopropyl-1H-1,2,3-triazol-4-yl)(4-fluorophenyl)methyl-d)amino)-4-((1,1-dioxidothietan-3-yl)amino)quinoline-3-carbonitrile], for which the EC50 in experiment [1] (setting [5]) stood at 7580 nM. Further, the IC50 in experiment [2] (setting [7]) was 244 nM.

As for `[2H][C@](Nc1cc(Cl)c2ncc(C#N)c(N[C@H](C)C(C)(C)C)c2c1)(c1ccc(F)cc1)c1cn(C2CC2)nn1` [Example 188, 8-chloro-6-(((S)-(1-cyclopropyl-1H-1,2,3-triazol-4-yl)(4-fluorophenyl)methyl-d)amino)-4-(((R)-3,3-dimethylbutan-2-yl)amino)quinoline-3-carbonitrile], in experiment [1] (setting [5]), the EC50 came out at 203 nM. For the same molecule, the IC50 in experiment [2] (setting [7]) turned out to be 16 nM.

For `N#Cc1cnc2c(Cl)cc(N[C@@H](c3ccc(Cl)cc3)c3c[nH]nn3)cc2c1Nc1cc(Cl)ccc1F` [Example 639, (S)-8-chloro-4-((5-chloro-2-fluorophenyl)amino)-6-(((4-chlorophenyl)(1H-1,2,3-triazol-4-yl)methyl)amino)quinoline-3-carbonitrile], the EC50 in experiment [1] (setting [5]) was 1710 nM. The IC50 in experiment [2] (setting [6]) came to 664 nM.

In the case of `[2H][C@](Nc1cc(Cl)c2ncc(C#N)c(Nc3cnc(F)c(F)c3)c2c1)(c1cccc(C#N)c1)c1c[nH]nn1` [Example 370, (S)-8-chloro-6-(((3-cyanophenyl)(1H-1,2,3-triazol-4-yl)methyl-d)amino)-4-((5,6-difluoropyridin-3-yl)amino)quinoline-3-carbonitrile], the EC50 in experiment [1] (setting [5]) came to 417 nM. Moreover, the IC50 in experiment [2] (setting [7]) worked out at 5 nM.

As to `CC(C)(C)N1CCC(n2cc([C@@H](Nc3cc(Cl)c4ncc(C#N)c(N[C@@H]5CCOc6ccccc65)c4c3)c3ccccc3)nn2)CC1` [Example 506, 6-(((S)-(1-(1-(tert-butyl)piperidin-4-yl)-1H-1,2,3-triazol-4-yl)(phenyl)methyl)amino)-8-chloro-4-(((R)-chroman-4-yl)amino)quinoline-3-carbonitrile], the EC50 in experiment [1] (setting [5]) amounted to 5290 nM. Moreover, the IC50 in experiment [2] (setting [6]) came to 1690 nM.

For `CC[C@@H](Nc1c(C#N)cnc2c(Cl)cc(N[C@H](c3c[nH]nn3)c3ccccc3Cl)cc12)c1ccccc1` [Example 533, 8-chloro-6-(((S)-(2-chlorophenyl)(1H-1,2,3-triazol-4-yl)methyl)amino)-4-(((R)-1-phenylpropyl)amino) quinoline-3-carbonitrile], in experiment [1] (setting [5]), the EC50 was found to be 660 nM. The half-inhibitory concentration (IC50) in experiment [2] (setting [6]) was determined as 73 nM.

In the case of `[2H][C@](Nc1cc(-c2ccccc2)c2ncc(C#N)c(NCC(C)(C)C)c2c1)(c1ccc(F)cc1)c1cn(C2CC2)nn1` [Example 171, (S)-6-(((1-cyclopropyl-1H-1,2,3-triazol-4-yl)(4-fluorophenyl)methyl-d)amino)-4-(neopentylamino)-8-phenylquinoline-3-carbonitrile], in experiment [1] (setting [5]), the EC50 was greater than 10000 nM. For the same molecule, the IC50 in experiment [2] (setting [7]) is 9530 nM.

As to `CC(C)(C)CNc1c(C#N)cnc2c(Cl)cc(N[C@H](c3cn(C4(C(F)(F)F)CC4)nn3)c3cccc(C(=O)O)c3F)cc12` [Example 1112, (S)-3-(((8-chloro-3-cyano-4-(neopentylamino)quinolin-6-yl)amino)(1-(1-(trifluoromethyl)cyclopropyl)-1H-1,2,3-triazol-4-yl)methyl)-2-fluorobenzoic acid], the EC50 in experiment [1] (setting [3]) is no less than 1000 nM. Further, in experiment [2] (setting [4]), the IC50 amounted to 76 nM.

As for `CC[C@@H](Nc1c(C#N)cnc2c(Cl)cc(N[C@@H](c3ccc(F)cc3)c3c[nH]nn3)cc12)c1ccccc1` [Example 537, 8-chloro-6-(((S)-(4-fluorophenyl)(1H-1,2,3-triazol-4-yl)methyl)amino)-4-(((R)-1-phenylpropyl)amino) quinoline-3-carbonitrile], in experiment [1] (setting [5]), the EC50 stood at 458 nM. Further, the IC50 in experiment [2] (setting [6]) turned out to be 17 nM.

As to `CCN1CC(Cn2cc([C@@H](Nc3cc(Cl)c4ncc(C#N)c(Nc5ccc(F)c(Cl)c5)c4c3)c3ccccc3)nn2)C1` [Example 747, (S)-8-chloro-4-((3-chloro-4-fluorophenyl)amino)-6-(((1-((1-ethylazetidin-3-yl)methyl)-1H-1,2,3-triazol-4-yl)(phenyl)methyl)amino) quinoline-3-carbonitrile], the EC50 in experiment [1] (setting [5]) stood at 110 nM. The IC50 in experiment [2] (setting [6]) stood at 4 nM.

With `CC(C)n1cc([C@@H](Nc2cc(Cl)c3ncc(C#N)c(Nc4ccc(F)c(Cl)c4)c3c2)c2cccc(NS(C)(=O)=O)c2)nn1` [Example 566, (S)-N-(3-(((8-chloro-4-((3-chloro-4-fluorophenyl)amino)-3-cyanoquinolin-6-yl)amino)(1-isopropyl-1H-1,2,3-triazol-4-yl)methyl)phenyl) methanesulfonamide], the EC50 in experiment [1] (setting [5]) is 353 nM. Besides, the IC50 in experiment [2] (setting [6]) was determined as 5 nM.

On to `[2H]C(Nc1cc(Cl)c2ncc(C#N)c(NCC(C)(C)C)c2c1)(c1cn(C2(C(F)(F)F)CC2)nn1)c1ccccc1Cl` (stereo not drawn) [Example 106, 8-chloro-6-(((2-chlorophenyl) (1-(1-(trifluoromethyl)cyclopropyl)-1H-1,2,3-triazol-4-yl)methyl-d)amino)-4-(neopentylamino) quinoline-3-carbonitrile], for which the EC50 in experiment [1] (setting [5]) was 826 nM. For the same molecule, the IC50 in experiment [2] (setting [7]) came out at 58 nM.

Take `N#Cc1cccc([C@H](Nc2cc(Cl)c3ncc(C#N)c(Nc4ccc(Cl)c(Cl)c4F)c3c2)c2cn(C3COC3)nn2)c1` [Example 466, (S)-8-chloro-6-(((3-cyanophenyl)(1-(oxetan-3-yl)-1H-1,2,3-triazol-4-yl)methyl)amino)-4-((3,4-dichloro-2-fluorophenyl)amino) quinoline-3-carbonitrile]: in experiment [1] (setting [5]), the EC50 worked out at 1400 nM. In experiment [2] (setting [6]), the IC50 is 53 nM.

Regarding `CC(C)(C)CNc1c(C#N)cnc2c(Br)cc(N[C@@H](c3cccc(C(=O)N4CC(O)C4)c3)c3cn(C4CC4)nn3)cc12` [Example 52, (S)-8-bromo-6-(((1-cyclopropyl-1H-1,2,3-triazol-4-yl) (3-(3-hydroxyazetidine-1-carbonyl)phenyl)methyl)amino)-4-(neopentylamino) quinoline-3-carbonitrile], the EC50 in experiment [1] (setting [5]) was greater than 1000 nM. Also, the IC50 in experiment [2] (setting [7]) was determined as 4 nM.

`CCC(Nc1c(C#N)cnc2c(Cl)cc(N[C@@H](c3ccc(F)cc3)c3c[nH]nn3)cc12)c1ccccc1F` (stereo partly drawn) [Example 397, 8-chloro-6-(((S)-(4-fluorophenyl)(1H-1,2,3-triazol-4-yl)methyl)amino)-4-((1-(2-fluorophenyl)propyl)amino) quinoline-3-carbonitrile]: in experiment [1] (setting [5]), the EC50 is 726 nM. The IC50 in experiment [2] (setting [7]) is 125 nM.

As for `CC[C@H](C)Nc1c(C#N)cnc2c(Cl)cc(N[C@@H](c3ccccc3)c3cn(C(C)C)nn3)cc12` [Example 586, 4-(((S)-sec-butyl)amino)-8-chloro-6-(((S)-(1-isopropyl-1H-1,2,3-triazol-4-yl)(phenyl)methyl)amino) quinoline-3-carbonitrile], the EC50 in experiment [1] (setting [5]) was 8560 nM. Further, the IC50 in experiment [2] (setting [6]) turned out to be 892 nM.

For `N#CCC[C@@H](Nc1c(C#N)cnc2c(Cl)cc(N[C@H](c3cn(C4COC4)nn3)c3ccccc3Cl)cc12)c1ccccc1` [Example 65, 8-chloro-6-(((S)-(2-chlorophenyl)(1-(oxetan-3-yl)-1H-3-triazol-4-yl)methyl)amino)-4-(((R)-3-cyano-1-phenylpropyl)amino) quinoline-3-carbonitrile], the EC50 in experiment [1] (setting [5]) stood at 95 nM. Moreover, in experiment [2] (setting [7]), the IC50 was 3 nM.

A word on the EC50: it is the concentration needed to bring the measured effect to its halfway point. By IC50 is commonly meant the concentration that inhibits the measured activity by half.

These data come from US10316017B2, “COT modulators and methods of use thereof” (Gilead Sciences, Inc., priority 2015, dated 2019).
